The experiment concerns the target human full-length MKNK1 (Homo sapiens (Human), UniProt Q9BUB5, T344D). Kind of experiment: MKNK1 kinase high ATP assay (TR-FRET). The experiment is classed as biochemical. To be noted: 2 mM ATP, 15 min preincubation with enzyme, GST-MKNK1 (T344D). In a few lines: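 GST-tagged full-length human MKNK1 (1-424, T344D, baculovirus-expressed) preincubated 15 min at 22 °C with compound, then reacted 30 min at 22 °C with 2 mM ATP and 0.06 μM biotinylated peptide (final) in HEPES pH 7.5. Phospho-substrate by TR-FRET (665/622 nm ratio), normalised to no-inhibitor and no-enzyme controls.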
On the technique in general: TR-FRET usually uses a lanthanide donor and a delayed reading to cut background.

Chain of human full-length MKNK1 (Q9BUB5 other isoform, or with tags, fused parts or gaps T344D): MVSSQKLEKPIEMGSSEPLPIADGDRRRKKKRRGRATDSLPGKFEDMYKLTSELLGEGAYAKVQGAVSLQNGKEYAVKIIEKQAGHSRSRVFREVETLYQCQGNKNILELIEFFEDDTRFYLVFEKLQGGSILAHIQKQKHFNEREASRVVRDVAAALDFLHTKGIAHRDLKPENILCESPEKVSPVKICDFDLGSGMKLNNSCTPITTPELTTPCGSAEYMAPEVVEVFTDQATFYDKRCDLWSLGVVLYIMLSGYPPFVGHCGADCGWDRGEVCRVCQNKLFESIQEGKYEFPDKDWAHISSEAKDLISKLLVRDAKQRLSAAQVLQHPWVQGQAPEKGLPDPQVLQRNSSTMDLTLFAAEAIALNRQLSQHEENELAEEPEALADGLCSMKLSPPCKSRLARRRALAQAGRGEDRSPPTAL

Turning to `Cc1cc(Nc2ncnc3c2CN(C(=O)[C@@H]2CCC(=O)N2)C3)c(=O)n2c1C(=O)NC21CCCCC1` [Example 77, 8′-Methyl-6′-[(6-{[(2S)-5-oxopyrrolidin-2-yl]carbonyl}-6,7-dihydro-5H-pyrrolo[3,4-cl]pyrimidin-4-yl)amino]-2′H-spiro[cyclohexane-1,3′-imidazo[1,5-a]pyridine]-1′,5′-dione], it took 0.0559 µM to reach half-maximal inhibition (IC50).

As for `Cc1cc(Nc2ncnc3sc(C(=O)N4CCC(N(C)C)CC4)c(C)c23)c(=O)n2c1C(=O)NC21CCCCC1` [Example 20, 6′-[(6-{[4-(Dimethylamino)piperidin-1-yl]carbonyl}-5-methylthieno[2,3-d]pyrimidin-4-yl)amino]-8′-methyl-2′H-spiro[cyclohexane-1,3′-imidazo[1,5-a]pyridine]-1′,5′-dione], the IC50 (usually the concentration needed to halve the response being measured) is 0.0352 µM.

In the case of `Cc1cc(Nc2ncnc3ccc(F)cc23)c(=O)n2c1C(=O)N[C@]21CC[C@@](O)(C(F)(F)F)CC1` [Example 189, (cis)-6′-[(6-fluoroquinazolin-4-yl)amino]-4-hydroxy-8′-methyl-4-(trifluoromethyl)-2′H-spiro[cyclohexane-1,3′-imidazo[1,5-a]pyridine]-1′,5′-dione], the IC50 was 0.274 µM.

Take `Cc1cc(Nc2ncnc3c2CN(C(=O)OC(C)(C)C)C3)c(=O)n2c1C(=O)NC2(C)C` [Example 163, tert-Butyl 4-[(3,3,8-trimethyl-1,5-dioxo-1,2,3,5-tetrahydroimidazo[1,5-a]pyridin-6-yl)amino]-5,7-dihydro-6H-pyrrolo[3,4-d]pyrimidine-6-carboxylate]: the concentration for half-maximal inhibition (IC50) came out at 0.0168 µM.

In the case of `CCOC(=O)Cn1cnc2c(Nc3cc(C)c4n(c3=O)C3(CCCCC3)NC4=O)ncnc21` [Example 45, Ethyl {6-[(8′-methyl-1′,5′-dioxo-1′,5′-dihydro-2′H-spiro[cyclohexane-1,3′-imidazo[1,5-a]pyridin]-6′-yl)amino]-9H-purin-9-yl}acetate], the IC50 is 0.603 µM.

As to `Cc1cc(Nc2ncnc3[nH]ncc23)c(=O)n2c1C(=O)NC21CCC1` [Example 160, 8′-Methyl-6′-(1H-pyrazolo[3,4-d]pyrimidin-4-ylamino)-2′H-spiro[cyclobutane-1,3′-imidazo[1,5-a]pyridine]-1′,5′-dione], 0.0029 µM corresponded to half-maximal inhibition (IC50).

The molecule `Cc1cc(Nc2ncnc3c2CNC3)c(=O)n2c1C(=O)NC21CCCCC1` [Example 36, 6′-(6,7-Dihydro-5H-pyrrolo[3,4-d]pyrimidin-4-ylamino)-8′-methyl-2′H-spiro[cyclohexane-1,3′-imidazo[1,5-a]pyridine]-1′,5′-dione] gave an IC50 of 0.0191 µM.

With `Cc1cc(Nc2ncnc(N)n2)c(=O)n2c1C(=O)NC2(C)C` [Example 131, 6-[(4-Amino-1,3,5-triazin-2-yl)amino]-3,3,8-trimethyl-2,3-dihydroimidazo[1,5-a]pyridine-1,5-dione], the IC50 is 0.0322 µM.

`Cc1cc(Nc2ncnc3[nH]ncc23)c(=O)n2c1C(=O)NC2(C)C` [Example 133, 3,3,8-Trimethyl-6-(1H-pyrazolo[3,4-d]pyrimidin-4-ylamino)-2,3-dihydroimidazo[1,5-a]pyridine-1,5-dione] had an IC50 of 0.0101 µM.

With `Cc1cc(Nc2ncnc3sc(C(=O)N4C[C@H]5C[C@@H]4CO5)cc23)c(=O)n2c1C(=O)NC2(C)C` [Example 144, 3,3,8-Trimethyl-6-({6-[(1R,4R)-2-oxa-5-azabicyclo[2.2.1]hept-5-ylcarbonyl]thieno[2,3-d]pyrimidin-4-yl}amino)-2,3-dihydroimidazo[1,5-a]pyridine-1,5-dione], the IC50 came out at 0.0129 µM.

Consider `Cc1cc(Nc2ncnc3c2ncn3CC(=O)O)c(=O)n2c1C(=O)NC21CCCCC1` [Example 48, {6-[(8′-Methyl-1′,5′-dioxo-1′,5′-dihydro-2′H-spiro[cyclohexane-1,3′-imidazo[1,5-a]pyridin]-6′-yl)amino]-9H-purin-9-yl}acetic acid], for which the midpoint of inhibition, the IC50, lay at 0.0294 µM.

In turn, `Cc1cc(Nc2ncnc3cccc(C)c23)c(=O)n2c1C(=O)NC21CSC1` [Example 174, 8-methyl-6-[(5-methylquinazolin-4-yl)amino]-2H-spiro[imidazo[1,5-a]pyridine-3,3′-thietane]-1,5-dione] yielded an IC50 of 0.0128 µM.

As to `Cc1cc(Nc2ncnc3sc(C(=O)N4CC(N)C4)cc23)c(=O)n2c1C(=O)NC21CCCC1` [Example 74, 6′-({6-[(3-Aminoazetidin-1-yl)carbonyl]thieno[2,3-d]pyrimidin-4-yl}amino)-8′-methyl-2′H-spiro[cyclopentane-1,3′-imidazo[1,5-a]pyridine]-1′,5′-dione], it took 0.0015 µM to reach half-maximal inhibition (IC50).

For the molecule `Cc1cc(Nc2ncnc3ccccc23)c(=O)n2c1C(=O)NC21CCCC1` [Example 187, 8′-methyl-6′-[(quinazolin-4-yl)amino]-2′H-spiro[cyclopentane-1,3′-imidazo[1,5-a]pyridine]-1′,5′-dione], the concentration for half-maximal inhibition (IC50) turned out to be 0.0073 µM.

Turning to `Cc1cc(Nc2ncnc3sc(C(=O)N4CC(N)C4)cc23)c(=O)n2c1C(=O)NC21CCC1` [Example 154, 6′-({6-[(3-Aminoazetidin-1-yl)carbonyl]thieno[2,3-d]pyrimidin-4-yl}amino)-8′-methyl-2′H-spiro[cyclobutane-1,3′-imidazo[1,5-a]pyridine]-1′,5′-dione], the IC50 was found to be 0.005 µM.

Molecule `Cc1cc(Nc2ncnc3cc(Cl)ccc23)c(=O)n2c1C(=O)NC21CCCCC1` [Example 108, 6′-[(7-Chloroquinazolin-4-yl)amino]-8′-methyl-2′H-spiro[cyclohexane-1,3′-imidazo[1,5-a]pyridine]-1′,5′-dione] returned an IC50 of 0.0165 µM.

With `Cc1cc(Nc2ncnc3sc(C(=O)N4CC(NC(=O)OC(C)(C)C)C4)cc23)c(=O)n2c1C(=O)NC21CCC(F)(F)CC1` [Example 83, tert-Butyl [1-({4-[(4,4-difluoro-8′-methyl-1′,5′-dioxo-1′,5′-dihydro-2′H-spiro[cyclohexane-1,3′-imidazo[1,5-a]pyridin]-6′-yl)amino]thieno[2,3-d]pyrimidin-6-yl}carbonyl)azetidin-3-yl]carbamate], the IC50 is 0.0122 µM.

Consider `Cc1cc(Nc2ncnc3[nH]cnc23)c(=O)n2c1C(=O)NC21CCCC1` [Example 67, 8′-methyl-6′-(9H-purin-6-ylamino)-2′H-spiro[cyclopentane-1,3′-imidazo[1,5-a]pyridine]-1′,5′-dione], for which 0.0007 µM corresponded to half-maximal inhibition (IC50).

The molecule `Cc1cc(Nc2ncnc3ccc(C(F)(F)F)cc23)c(=O)n2c1C(=O)NC21CCCC1` [Example 184, 8′-methyl-6′-{[6-(trifluoromethyl)quinazolin-4-yl]amino}-2′H-spiro[cyclopentane-1,3′-imidazo[1,5-a]pyridine]-1′,5′-dione] came in with an IC50 of 0.034 µM.

`Cc1cc(Nc2ncnc3c(F)cccc23)c(=O)n2c1C(=O)NC21CCCCC1` [Example 111, 6′-[(8-Fluoroquinazolin-4-yl)amino]-8′-methyl-2′H-spiro[cyclohexane-1,3′-imidazo[1,5-a]pyridine]-1′,5′-dione] displayed an IC50 of 0.517 µM.

As for `Cc1cc(Nc2ncnc3c2CNC3)c(=O)n2c1C(=O)NC21CCC1` [Example 168, 6′-(6,7-Dihydro-5H-pyrrolo[3,4-d]pyrimidin-4-ylamino)-8′-methyl-2′H-spiro[cyclobutane-1,3′-imidazo[1,5-a]pyridine]-1′,5′-dione], the IC50 is 0.0495 µM.

With `Cc1cc(Nc2ncnc3c2CN(S(=O)(=O)C(F)(F)F)C3)c(=O)n2c1C(=O)NC21CCCCC1` [Example 72, 8′-methyl-6′-({6-[(trifluoromethyl)sulfonyl]-6,7-dihydro-5H-pyrrolo[3,4-d]pyrimidin-4-yl}amino)-2′H-spiro[cyclohexane-1,3′-imidazo[1,5-a]pyridine]-1′,5′-dione], the IC50 is 0.0304 µM.

`Cc1cc(Nc2ncnc3sc(C(=O)N4CC[C@H](N(C)C)C4)cc23)c(=O)n2c1C(=O)NC21CCCCC1` [Example 30, 6′-[(6-{[(3S)-3-(Dimethylamino)pyrrolidin-1-yl]carbonyl}thieno[2,3-d]pyrimidin-4-yl)amino]-8′-methyl-2′H-spiro[cyclohexane-1,3′-imidazo[1,5-a]pyridine]-1′,5′-dione] had an IC50 of 0.0032 µM.

With `Cc1cc(Nc2ncnc3cccc(F)c23)c(=O)n2c1C(=O)NC21CCCCC1` [Example 41, 6′-[(5-Fluoroquinazolin-4-yl)amino]-8′-methyl-2′H-spiro[cyclohexane-1,3′-imidazo[1,5-a]pyridine]-1′,5′-dione], the IC50 turned out to be 0.014 µM.

In turn, `Cc1cc(Nc2ncnc3cccc(C)c23)c(=O)n2c1C(=O)N[C@]21CC[C@@](O)(C(F)(F)C(F)(F)F)CC1` [Example 191, (cis)-4-hydroxy-8′-methyl-6′-[(5-methylquinazolin-4-yl)amino]-4-(pentafluoroethyl)-2′H-spiro[cyclohexane-1,3′-imidazo[1,5-a]pyridine]-1′,5′-dione] yielded an IC50 of 0.0678 µM.

`Cc1cc(Nc2ccnc(N)n2)c(=O)n2c1C(=O)NC21CCCCC1` [Example 21, 6′-[(2-Aminopyrimidin-4-yl)amino]-8′-methyl-2′H-spiro[cyclohexane-1,3′-imidazo[1,5-a]pyridine]-1′,5′-dione] displayed an IC50 of 0.339 µM.

Take `Cc1cc(Nc2ncnc3[nH]ccc23)c(=O)n2c1C(=O)NC2(C)C` [Example 132, 3,3,8-Trimethyl-6-(7H-pyrrolo[2,3-d]pyrimidin-4-ylamino)-2,3-dihydroimidazo[1,5-a]pyridine-1,5-dione]: the IC50 is 0.0007 µM.

The molecule `COc1ccc2ncnc(Nc3cc(C)c4n(c3=O)C3(CCCCC3)NC4=O)c2c1` [Example 117, 6′-[(6-Methoxyquinazolin-4-yl)amino]-8′-methyl-2′H-spiro[cyclohexane-1,3′-imidazo[1,5-a]pyridine]-1′,5′-dione] came in with an IC50 of 0.0125 µM.

With `Cc1cc(Nc2ncnc3ccc(Cl)cc23)c(=O)n2c1C(=O)NC2(C)C` [Example 166, 6-[(6-Chloroquinazolin-4-yl)amino]-3,3,8-trimethyl-2,3-dihydroimidazo[1,5-a]pyridine-1,5-dione], the concentration for half-maximal inhibition (IC50) is 0.0459 µM.

The values above are taken from patent publication US11311520B2, “Substituted dihydroimidazopyridinediones as MKNK1 and MKNK2 inhibitors” (Bayer Pharma Aktiengesellschaft, priority 2017, dated 2022).
